Source: patent publication US11213499B1, “Use of 3,3′-diselenodipropionic acid (DSePA) as an anticancer agent” (Secretary, Department of Atomic Energy, priority 2020, dated 2022)
Read-outs that look alike come from different tables or passages of the source.

How the values were obtained:
[1] = test system: A549 (Human non-small cell lung adenocarcinoma); experiment: SRB/MTT anti-proliferative assay, A549; type: cell-based; details: 48 hours treatment, read-out: GI50 (Concentration of drug causing 50% inhibition of cell growth)
Procedure: (§1) The anticancer effect of DSePA was evaluated using a panel of twenty-five human cancer cell lines of different tissue origins. Cells were treated with the increasing concentrations (0.1-100 μM) of DSePA for 48 h and viability was monitored by (Sulforhodamine B) SRB assay or MTT assay.
(§2) Cell culture and DSePA synthesis—DSePA was synthesized and characterized as described in our previous reports. Cell lines were cultured in growth medium (DMEM/RPMI) supplemented with 10% FBS, 100 U/ml penicillin and 100 μg/ml streptomycin at 37° C. in a humidified 5% CO2 environment. The stock solution of DSePA was prepared fresh in cell culture medium and diluted with the same to achieve the desired concentrations.
(§3) SRB/MTT Assay—To evaluate the anti-proliferative effect of DSePA, Cells (˜5×10^3) suspended in 100 μl of complete culture medium were seeded in each well of 96 well plates. The cells were allowed to attach and grow for 24 h, treated with desired concentrations of DSePA dissolved in culture medium for 48 h and then processed for SRB/MTT assay as described in literature. The percentage (%) cytotoxicity was calculated from the decrease in absorbance as compared to that of control group.

[2] = test system: H460 (Human non-small cell lung adenocarcinoma); experiment: SRB/MTT anti-proliferative assay, H460; type: cell-based; details: 48 hours treatment, read-out: GI50 (Concentration of drug causing 50% inhibition of cell growth)
Procedure: as §1, §2, §3

[3] = test system: WI-38 (Human normal lung fibroblast); experiment: SRB/MTT assay, normal WI-38 cells; type: cell-based
Procedure: as §1, §2, §3

[4] = test system: CHO (Chinese Hamster Ovary (normal)); experiment: SRB/MTT assay, normal CHO cells; type: cell-based
Procedure: as §1, §2, §3

[5] = mice; cited from earlier work
[6] = rat; cited from earlier work

SMILES: O=C(O)CC[Se][Se]CCC(=O)O [DSePA, 3,3′-diselenodipropionic acid]
- GI50 [1]: 10 µM
- GI50 ([1]; Homo sapiens, A549, 48 h): ≤ 10 µM
- GI50 [2]: 8 µM
- GI50 ([2]; Homo sapiens, NCI-H460, 48 h): ≤ 10 µM
- GI50 ([3]; Homo sapiens, WI-38 normal cells, 48 hours treatment, SRB/MTT assay, read-out: GI50 (Concentration of drug causing 50% inhibition of cell growth)): > 100 µM
- toxicity in normal cell types ([3]; WI-38, 0.1-100 μM, 48 h): did not show toxicity
- toxicity in normal cell types ([4]; CHO, 0.1-100 μM, 48 h): did not show toxicity
- GI50 ([4]; Cricetulus griseus, CHO normal cells, 48 hours treatment, SRB/MTT assay, read-out: GI50 (Concentration of drug causing 50% inhibition of cell growth)): > 100 µM
- estimated median oral Lethal dose (LD50) cut-off [5]: 200 mg/kg
- estimated median oral Lethal dose (LD50) cut-off [6]: 25 mg/kg
